According to patent US20210317134A1, “UBIQUITIN-SPECIFIC-PROCESSING PROTEASE 7 (USP7) MODULATORS AND USES THEREOF” (RAPT THERAPEUTICS, INC., priority 2019, published 2021):

Target: USP7 (Homo sapiens, UniProt Q93009)
Experiment: USP7 inhibitory potency (Table 1)
Type: biochemical

Sequence of USP7 (Q93009 whole entry): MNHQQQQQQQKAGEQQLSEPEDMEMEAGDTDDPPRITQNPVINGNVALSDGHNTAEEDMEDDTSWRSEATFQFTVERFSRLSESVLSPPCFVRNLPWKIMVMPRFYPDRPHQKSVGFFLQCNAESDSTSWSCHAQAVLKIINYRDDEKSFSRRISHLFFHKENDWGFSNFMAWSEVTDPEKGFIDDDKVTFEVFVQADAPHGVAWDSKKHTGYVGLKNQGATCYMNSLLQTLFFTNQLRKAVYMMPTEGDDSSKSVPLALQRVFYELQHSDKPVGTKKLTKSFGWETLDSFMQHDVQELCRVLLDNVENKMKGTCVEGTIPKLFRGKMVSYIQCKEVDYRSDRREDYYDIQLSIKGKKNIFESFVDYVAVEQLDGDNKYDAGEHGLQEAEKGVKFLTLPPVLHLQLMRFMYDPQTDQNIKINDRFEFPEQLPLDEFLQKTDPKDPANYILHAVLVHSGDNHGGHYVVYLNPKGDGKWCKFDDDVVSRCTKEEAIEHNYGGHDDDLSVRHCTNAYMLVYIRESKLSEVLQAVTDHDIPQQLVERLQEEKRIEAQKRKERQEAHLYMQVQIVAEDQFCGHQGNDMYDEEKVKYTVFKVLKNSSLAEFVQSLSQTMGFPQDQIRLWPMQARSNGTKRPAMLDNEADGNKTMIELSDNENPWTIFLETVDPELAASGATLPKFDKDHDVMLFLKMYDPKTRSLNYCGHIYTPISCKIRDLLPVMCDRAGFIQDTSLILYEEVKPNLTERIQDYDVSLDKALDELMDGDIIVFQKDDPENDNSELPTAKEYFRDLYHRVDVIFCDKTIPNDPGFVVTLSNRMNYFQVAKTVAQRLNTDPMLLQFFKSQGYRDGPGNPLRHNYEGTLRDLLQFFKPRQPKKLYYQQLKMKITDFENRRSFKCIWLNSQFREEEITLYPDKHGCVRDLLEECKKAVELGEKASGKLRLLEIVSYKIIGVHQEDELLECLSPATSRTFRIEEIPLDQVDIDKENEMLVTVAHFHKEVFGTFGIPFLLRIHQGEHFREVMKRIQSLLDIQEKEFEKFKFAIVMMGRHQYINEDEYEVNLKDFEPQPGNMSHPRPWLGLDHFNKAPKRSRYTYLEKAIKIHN

Row | IC50 [nM] | Compound
1 | < 1000 | CC(NCc1cc2nccc(-c3cc(Cl)cc4c3O[C@@H](c3onc5c3CNCC5)C4)c2s1)C(F)(F)F (stereo partly drawn) [N-((7-((R)-5-chloro-2-(4,5,6,7-tetrahydroisoxazolo[4,3-c]pyridin-3-yl)-2,3-dihydrobenzofuran-7-yl)thieno[3,2-b]pyridin-2-yl)methyl)-1,1,1-trifluoropropan-2-amine]
2 | < 1000 | CCC(O)c1cc2nccc(-c3cc(Cl)cc4c3O[C@@H](c3onc5c3CN(C)CC5)C4)c2s1 (stereo partly drawn) [drawing 1573, 1-(7-((R)-5-chloro-2-(5-methyl-4,5,6,7-tetrahydroisoxazolo[4,3-c]pyridin-3-yl)-2,3-dihydrobenzofuran-7-yl)thieno[3,2-b]pyridin-2-yl)propan-1-ol]
3 | < 1000 | Cn1nc2c(c1[C@H]1Cc3cc(Cl)cc(-c4ncnc5cc(CO)sc45)c3O1)CNCC2 [(R)-(4-(5-chloro-2-(2-methyl-4,5,6,7-tetrahydro-2H-pyrazolo[4,3-c]pyridin-3-yl)-2,3-dihydrobenzofuran-7-yl)thieno[3,2-d]pyrimidin-6-yl)methanol]
4 | < 1000 | N#Cc1ccc2c(-c3cc(Cl)cc4c3O[C@@H](c3onc5c3CNCC5)C4)ccnc2c1 [(R)-4-(5-chloro-2-(4,5,6,7-tetrahydroisoxazolo[4,3-c]pyridin-3-yl)-2,3-dihydrobenzofuran-7-yl)quinoline-7-carbonitrile]
5 | < 1000 | CCN1CCc2noc([C@H]3Cc4cc(Cl)cc(-c5ccnc6ccsc56)c4O3)c2C1 [(R)-3-(5-chloro-7-(thieno[3,2-b]pyridin-7-yl)-2,3-dihydrobenzofuran-2-yl)-5-ethyl-4,5,6,7-tetrahydroisoxazolo[4,3-c]pyridine]
6 | < 1000 | CNC1CCN(C(=O)[C@H]2Cc3cc(Cl)cc(-c4ccnc5cc(CO)sc45)c3O2)CC1 [(R)-(5-chloro-7-(2-(hydroxymethyl)thieno[3,2-b]pyridin-7-yl)-2,3-dihydrobenzofuran-2-yl)(4-(methylamino)piperidin-1-yl)methanone]
7 | < 1000 | N#Cc1cc2c(c(-c3ccnc4cc(CO)sc34)c1)O[C@@H](C(=O)N1CCNCC1)C2 [(R)-7-(2-(hydroxymethyl)thieno[3,2-b]pyridin-7-yl)-2-(piperazine-1-carbonyl)-2,3-dihydrobenzofuran-5-carbonitrile]
8 | 1000 to 10000 | O=C([C@H]1Cc2cc(Cl)cc(-c3ccnc4occc34)c2O1)N1CCNCC1 [(R)-(5-chloro-7-(furo[2,3-b]pyridin-4-yl)-2,3-dihydrobenzofuran-2-yl)(piperazin-1-yl)methanone]
9 | 1000 to 10000 | O=C([C@H]1Cc2cc(Cl)cc(-c3ccnc4cc(CO)sc34)c2O1)N1CCn2c(nnc2C(F)(F)F)C1 [(R)-(5-chloro-7-(2-(hydroxymethyl)thieno[3,2-b]pyridin-7-yl)-2,3-dihydrobenzofuran-2-yl)(3-(trifluoromethyl)-5,6-dihydro-[1,2,4]triazolo[4,3-a]pyrazin-7(8H)-yl)methanone]
10 | 1000 to 10000 | Clc1cc2c(c(-c3ccnc4cc(Cl)ccc34)c1)O[C@@H](c1[nH]nc3c1CNCC3)C2 [(R)-7-chloro-4-(5-chloro-2-(4,5,6,7-tetrahydro-2H-pyrazolo[4,3-c]pyridin-3-yl)-2,3-dihydrobenzofuran-7-yl)quinoline]

Further lines, the compound ahead of its results:

Row | Compound | IC50 [nM]
11 | O=C(C1Cc2cc(Cl)cc(-c3ccnc4[nH]ccc34)c2O1)N1CCC(O)(c2ccccn2)CC1 (stereo not drawn) [(5-chloro-7-(1H-pyrrolo[2,3-b]pyridin-4-yl)-2,3-dihydrobenzofuran-2-yl)(4-hydroxy-4-(pyridin-2-yl)piperidin-1-yl)methanone] | 1000 to 10000
12 | Clc1cc2c(c(-c3ncnc4c3CCC4)c1)O[C@@H](c1onc3c1CNCC3)C2 [(R)-3-(5-chloro-7-(6,7-dihydro-5H-cyclopenta[d]pyrimidin-4-yl)-2,3-dihydrobenzofuran-2-yl)-4,5,6,7-tetrahydroisoxazolo[4,3-c]pyridine] | 10000 to 30000
13 | C[C@H]1CNCCN1C(=O)C1Cc2cc(Cl)cc(-c3ccnc4[nH]ccc34)c2O1 (stereo partly drawn) [(5-chloro-7-(1H-pyrrolo[2,3-b]pyridin-4-yl)-2,3-dihydrobenzofuran-2-yl)((S)-2-methylpiperazin-1-yl)methanone] | 1000 to 10000
14 | O=C(C1Cc2cc(Cl)cc(-c3ccnc4[nH]ccc34)c2O1)N1CCCC(C2CNC2)C1 (stereo not drawn) [(3-(azetidin-3-yl)piperidin-1-yl)(5-chloro-7-(1H-pyrrolo[2,3-b]pyridin-4-yl)-2,3-dihydrobenzofuran-2-yl)methanone] | 10000 to 30000
15 | O=C(C1Cc2cc(Cl)cc(-c3ccnc4c3CCCC4)c2O1)N1CCNCC1 (stereo not drawn) [(5-chloro-7-(5,6,7,8-tetrahydroquinolin-4-yl)-2,3-dihydrobenzofuran-2-yl)(piperazin-1-yl)methanone] | < 1000
16 | CC[C@@H](O)c1cc2ncnc(-c3cc(Cl)cc4c3O[C@@H](c3onc5c3CNCC5)C4)c2s1 [(R)-1-(4-((R)-5-chloro-2-(4,5,6,7-tetrahydroisoxazolo[4,3-c]pyridin-3-yl)-2,3-dihydrobenzofuran-7-yl)thieno[3,2-d]pyrimidin-6-yl)propan-1-ol] | < 1000
17 | CNC(=O)c1cc2c(-c3cc(Cl)cc4c3OC(C(=O)N3CCNCC3)C4)ccnc2[nH]1 (stereo not drawn) [4-(5-Chloro-2-(piperazine-1-carbonyl)-2,3-dihydrobenzofuran-7-yl)-N-methyl-1H-pyrrolo[2,3-b]pyridine-2-carboxamide] | 10000 to 30000
18 | CCN1CCc2noc([C@H]3Cc4cc(Cl)cc(-c5ncnc6ccoc56)c4O3)c2C1 [(R)-3-(5-chloro-7-(furo[3,2-d]pyrimidin-4-yl)-2,3-dihydrobenzofuran-2-yl)-5-ethyl-4,5,6,7-tetrahydroisoxazolo[4,3-c]pyridine] | 1000 to 10000
19 | O=C(C1Cc2cc(Cl)cc(-c3ccnc4cc(CO)ccc34)c2O1)N1CCNCC1 (stereo not drawn) [(5-chloro-7-(7-(hydroxymethyl)quinolin-4-yl)-2,3-dihydrobenzofuran-2-yl)(piperazin-1-yl)methanone] | 1000 to 10000
20 | O=C(C1Cc2cc(Cl)c(Cl)c(-c3ccnc4[nH]ccc34)c2O1)N1CCNCC1 (stereo not drawn) [(5,6-dichloro-7-(1H-pyrrolo[2,3-b]pyridin-4-yl)-2,3-dihydrobenzofuran-2-yl)(piperazin-1-yl)methanone] | 1000 to 10000
21 | CC[C@@H](O)c1cc2nccc(-c3cc(Cl)cc4c3O[C@@](C)(c3onc5c3CNCC5)C4)c2s1 [(R)-1-(7-((R)-5-chloro-2-methyl-2-(4,5,6,7-tetrahydroisoxazolo[4,3-c]pyridin-3-yl)-2,3-dihydrobenzofuran-7-yl)thieno[3,2-b]pyridin-2-yl)propan-1-ol] | < 1000
22 | OCc1cc2nccc(-c3cc(Cl)cc4c3OC(c3onc5c3CNCC5)C4)n2n1 (stereo not drawn) [(7-(5-chloro-2-(4,5,6,7-tetrahydroisoxazolo[4,3-c]pyridin-3-yl)-2,3-dihydrobenzofuran-7-yl)pyrazolo[1,5-a]pyrimidin-2-yl)methanol] | 1000 to 10000
23 | C[C@H](c1cc2nccc(-c3cc(Cl)cc4c3O[C@@H](C(=O)N3CCNCC3)C4)c2s1)N1C(=O)CCC1=O [1-((R)-1-(7-((R)-5-chloro-2-(piperazine-1-carbonyl)-2,3-dihydrobenzofuran-7-yl)thieno[3,2-b]pyridin-2-yl)ethyl)pyrrolidine-2,5-dione] | < 1000
24 | O=C(C1Cc2cc(Cl)cc(-c3ccnc4[nH]ccc34)c2O1)N1CCC(O)(c2ccncc2)CC1 (stereo not drawn) [(5-chloro-7-(1H-pyrrolo[2,3-b]pyridin-4-yl)-2,3-dihydrobenzofuran-2-yl)(4-hydroxy-4-(pyridin-4-yl)piperidin-1-yl)methanone] | < 1000
